# Measured values published in BigSolDB 2.1.
compound,measurement,setting,value
c1ccc2[nH]c(-c3cscn3)nc2c1,solubility (mole fraction),"in acetonitrile, 283.15 K",0.000106
same,solubility (mole fraction),"in acetonitrile, 288.15 K",0.000125
same,solubility (mole fraction),"in acetonitrile, 293.15 K",0.00015
same,solubility (mole fraction),"in acetonitrile, 298.15 K",0.000177
same,solubility (mole fraction),"in acetonitrile, 303.15 K",0.000213
same,solubility (mole fraction),"in acetonitrile, 308.15 K",0.000259
same,solubility (mole fraction),"in acetonitrile, 313.15 K",0.0003
same,solubility (mole fraction),"in acetonitrile, 318.15 K",0.000353
same,solubility (mole fraction),"in acetonitrile, 323.15 K",0.000419
same,solubility (mole fraction),"in isopropanol, 283.15 K",0.000682
same,solubility (mole fraction),"in isopropanol, 288.15 K",0.000785
same,solubility (mole fraction),"in isopropanol, 293.15 K",0.000915
same,solubility (mole fraction),"in isopropanol, 298.15 K",0.00103
same,solubility (mole fraction),"in isopropanol, 303.15 K",0.00121
same,solubility (mole fraction),"in isopropanol, 308.15 K",0.00137
same,solubility (mole fraction),"in isopropanol, 313.15 K",0.00155
same,solubility (mole fraction),"in isopropanol, 318.15 K",0.00174
same,solubility (mole fraction),"in isopropanol, 323.15 K",0.00193
same,solubility (mole fraction),"in methanol, 283.15 K",0.0013
same,solubility (mole fraction),"in methanol, 288.15 K",0.00147
same,solubility (mole fraction),"in methanol, 293.15 K",0.00163
same,solubility (mole fraction),"in methanol, 298.15 K",0.00181
same,solubility (mole fraction),"in methanol, 303.15 K",0.002
same,solubility (mole fraction),"in methanol, 308.15 K",0.00223
same,solubility (mole fraction),"in methanol, 313.15 K",0.00248
same,solubility (mole fraction),"in methanol, 318.15 K",0.00273
same,solubility (mole fraction),"in methanol, 323.15 K",0.00297
same,solubility (mole fraction),"in n-propanol, 283.15 K",0.00136
same,solubility (mole fraction),"in n-propanol, 288.15 K",0.00156
same,solubility (mole fraction),"in n-propanol, 293.15 K",0.00177
same,solubility (mole fraction),"in n-propanol, 298.15 K",0.002
same,solubility (mole fraction),"in n-propanol, 303.15 K",0.00225
same,solubility (mole fraction),"in n-propanol, 308.15 K",0.00252
same,solubility (mole fraction),"in n-propanol, 313.15 K",0.00282
same,solubility (mole fraction),"in n-propanol, 318.15 K",0.00314
same,solubility (mole fraction),"in n-propanol, 323.15 K",0.00347
same,solubility (mole fraction),"in water, 283.15 K",2.04e-07
same,solubility (mole fraction),"in water, 288.15 K",2.67e-07
same,solubility (mole fraction),"in water, 293.15 K",3.42e-07
same,solubility (mole fraction),"in water, 298.15 K",4.23e-07
same,solubility (mole fraction),"in water, 303.15 K",5.25e-07
same,solubility (mole fraction),"in water, 308.15 K",6.68e-07
same,solubility (mole fraction),"in water, 313.15 K",8.6e-07
same,solubility (mole fraction),"in water, 318.15 K",1.08e-06
same,solubility (mole fraction),"in water, 323.15 K",1.36e-06
